Data: PMC5321741, “Arylmethylamino steroids as antiparasitic agents” (Nature Communications, 2017)

Legend:
[1] = test system: P. falciparum (strain 3D7); test: 72 h 3H-hypoxanthine incorporation assay, asexual blood stages; type: cell-based, Plasmodium falciparum; conditions: 72 h 3H-hypoxanthine incorporation, asexual blood stages; read-out: Antiplasmodial activity IC50 Pf (3D7)
HeLa = test: cytotoxicity on HeLa cells; type: cell-based; conditions: 72 h
Protocol: (§1) Compounds were tested for their antiproliferative activity on HUVEC and K-562 cells and for cytotoxicity on HeLa cells using standard protocols. K-562 (DSM ACC 10), HUVEC (ATCC CRL-1730), and HeLa (DSM ACC 57) cells were cultured as described previously. To assay the antiproliferative and cytotoxic effect, procedures were carried out as described before. In brief, for each experiment with K-562 and HeLa ∼10,000 cells were seeded per well of the 96-well microplates. For the cytotoxicity assay, the HeLa cells were preincubated for 48 h without the test substances. Cells were incubated for 72 h at 37 °C in a humidified atmosphere and 5% CO2. Suspension cultures of K-562 in microplates were analysed by an electronic cell analyzer system CASY 1 (SCHÄRFE, Reutlingen, Germany). The monolayer of the HUVEC and HeLa cells were fixed by glutaraldehyde (MERCK) and stained with a 0.05% solution of methylene blue (SERVA). After gently washing, the stain was eluted by 0.2 ml of 0.33 N HCl in the wells. The optical densities were measured at 660 nm in a microplate reader. The calculations of the different values of GI50 and CC50 were performed with the software Magellan (TECAN).

HUVEC = test: antiproliferative activity on HUVEC cells; type: cell-based; conditions: 72 h
Protocol: as §1

K-562 = test: antiproliferative activity on K-562 cells; type: cell-based; conditions: 72 h
Protocol: as §1

[2] = test system: Penicillium notatum JMRC:STI:50164; test: agar diffusion inhibition zone test; type: cell-based; conditions: 1o, 2o 1,000 µg/ml in DMSO; amphotericin B 10 µg/ml; solvent DMSO 13p
Protocol: (§2) The following organisms were tested at the Hans Knöll Institute in Jena, for their susceptibility to the compounds 1o and 2o: Bacillus subtilis JMRC:STI:10880, Staphylococcus aureus JMRC:ST:10760, Escherichia coli JMRC:ST:33699, Pseudomonas aeruginosa JMRC:ST:33772, Pseudomonas aeruginosa JMRC:ST:337721, Staphylococcus aureus JMRC:ST:33793 (multi-resistant), Enterococcus faecalis JMRC:ST:33700 (Vancomycin-resistant), Mycobacterium vaccae JMRC:STI:10670, Sporobolomyces salmonicolor (Basidiomycetes yeast) JMRC:ST:35974, Candida albicans (Ascomycetes yeast) JMRC:STI:25000, Penicillium notatum JMRC:STI:50164.
(§3) The bacteria were propagated in Mueller Hinton Broth (Oxoid)[49]. Yeast was propagated in YPD (yeast extract peptone dextrose): 1% yeast extract, 10 g; 2% peptone, 20 g; 2% agar, 20 g; 2% dextrose (glucose), 20 g; Sigma-Y1375. All bacteria and yeast suspensions were freshly made. The cultures were incubated at 37 °C for 16 h. Afterwards, the bacteria concentration from each culture was determined, and 34 ml of nutrient agar was loaded with 10^7 cells. These cultures were stored at 6-8 °C and could be used for seven days for the preparation of test plates. 34 ml of nutrient agar was liquefied and inoculated with the calculated amount of inoculum bacteria suspension at 48–50 °C, a temperature suitable for vegetative forms of bacteria. The inoculated nutrient media (34 ml each) were immediately poured into the prepared test plates (3 mm layer). With a punching device, 12 holes per test plate were punched out. For inhibiting bacterial growth, ciprofloxacin was used as a reference substance. The test substances were dissolved in distilled water, and 5 μg ml^−1 and 50 μl was added to each bacterial culture. For inhibition of fungal growth, amphotericin B served as the reference substance. The test substances were diluted to 10 μg ml^−1 in DMSO/methanol; 50 μl was added to each culture.
(§4) Configuring the test plate; volumes/punched hole: 50 μl; test solutions/test plate: 1 × 50 μl reference substance. Test plates were cultivated for 18 h at 37 °C. Analysis: Reading the inhibition zones (IZ): As IZ, the zone in which no growth can be determined with the naked eye is measured; the tiniest colonies on the edge of the inhibition zone were therefore not taken into consideration. The diameter (φ) of the IZ is measured in mm. The analysis of IZ φ is carried out internationally with the help of statistic procedures, especially regression analysis. With each test approach, the reference substance was brought along as a control; if there were deviations from allowed IZ φ, the test was repeated.
(§5) The inhibition of bacterial growth was determined using bacterial cultures grown in Müller-Hinton Bouillon, which was configured at barely visible opacity with the McFarland Standard Nr. 0.5, which indicates a bacterial density of 10^8 ml^−1. This bacterial suspension was diluted with Müller-Hinton Bouillon using 2-fold dilution series in the agar diffusion test.
(§6) Analysis: The growth in the inhibition zones around the holes containing active substances is thereby compared with the growth in the growth control (no active substance). Bacterial growth was determined according to four measurements: p=presence of colonies in the inhibition zone, P=presence of many colonies in the inhibition zone, A=indication of inhibition, F=facilitation.

[3] = test system: Candida albicans JMRC:STI:25000; test: agar diffusion inhibition zone test; type: cell-based; conditions: 1o, 2o 1,000 µg/ml in DMSO, amphotericin B 10 µg/ml, solvent DMSO 0, read-out: inhibition zone diameter, Candida albicans (H8)
Protocol: as §2, §3, §4, §5, §6

[4] = test system: Sporobolomyces salmonicolor JMRC:ST:35974; test: agar diffusion inhibition zone test; type: cell-based; conditions: 1o, 2o 1,000 µg/ml in DMSO; amphotericin B 10 µg/ml; solvent DMSO 20p
Protocol: as §2, §3, §4, §5, §6

[5] = test system: Penicillium chrysogenum JMRC:SF:10137; test: spore inhibition test; type: cell-based; conditions: 48 h; start concentration 1 mg/ml (1o, 2o), 100 µg/ml (Amphotericin B)
Protocol: (§7) The following test organisms were used for their susceptibility to compounds 1o and 2o: Alternaria alternata JMRC:SF:09317, Arthroderma benhamiae JMRC:ST:35888, Aspergillus fumigatus JMRC:Afum:00073=ATCC 46645, Aspergillus terreus JMRC:SF:06307, Candida albicans JMRC:ST:35864, Lichtheimia corymbifera JMRC:SF:09682, Penicillium chrysogenum JMRC:SF:10137, Rhizopus arrhizus (syn. R. oryzae) JMRC:SF:05857=ATCC 56536, CBS 112.07.
(§8) Fungi were grown on 3% malt extract solidified medium for 1 to 2 weeks at room temperature. Then the plates were washed with 7 ml sterile distilled water, and the spore suspension was filtered through 4 layers of sterile Miracloth (Kalbiochem, USA) to remove the hyphae. The concentration of the spore suspension was set to 2 × 10^4 conidia ml^−1 for the in vitro assays.
(§9) The spore inhibition assay took place in 96-well microplates (flat base). 50 μl of the prepared spore suspension was seeded and then mixed with 50 μl of the respective inhibitor substance. Tests were started with end concentrations of 1 mg ml^−1 and were then reduced in a minimum of 10 halving steps. Thus a 2 mg ml^−1 stock solution diluted in half ten times with solvent (distilled water, 2% DMSO in distilled water, or 2% DMF in distilled water) and each 50 μl was transferred to 50 μl spore suspension. For each test substance, 12 holes on the microtiter plate were filled. After 24 h incubation (25 °C), the germination of the spores was macroscopically and microscopically examined directly in the microtiter plate via measurement of the optical density and light microscopy using an inverse stereomicroscope with subsequent photodocumentation, respectively. If necessary, the plates were further incubated for another 24 or 48 h, depending on the extent of fungal germination.

[6] = test system: Lichtheimia corymbifera JMRC:SF:09682; test: spore inhibition test; type: cell-based; conditions: 48 h; start concentration 1 mg/ml (1o, 2o), 100 µg/ml (Amphotericin B)
Protocol: as §7, §8, §9

[7] = test system: Candida albicans JMRC:ST:35864; test: spore inhibition test; type: cell-based; conditions: 48 h; start concentration 1 mg/ml (1o, 2o), 100 µg/ml (Amphotericin B)
Protocol: as §7, §8, §9

[8] = test system: Arthroderma benhamiae JMRC:ST:35888; test: spore inhibition test; type: cell-based; conditions: 72 h; start concentration 1 mg/ml (1o, 2o), 100 µg/ml (Amphotericin B)
Protocol: as §7, §8, §9

[9] = test system: Rhizopus arrhizus (syn. R. oryzae) JMRC:SF:05857; test: spore inhibition test; type: cell-based; conditions: 48 h; start concentration 1 mg/ml (1o, 2o), 100 µg/ml (Amphotericin B)
Protocol: as §7, §8, §9

[10] = test system: Aspergillus fumigatus JMRC:Afum:00073; test: spore inhibition test; type: cell-based; conditions: 48 h; start concentration 1 mg/ml (1o, 2o), 100 µg/ml (Amphotericin B)
Protocol: as §7, §8, §9

[11] = test system: Alternaria alternata JMRC:SF:09317; test: spore inhibition test; type: cell-based; conditions: 48 h; start concentration 1 mg/ml (1o, 2o), 100 µg/ml (Amphotericin B)
Protocol: as §7, §8, §9

[12] = test system: Aspergillus terreus JMRC:SF:06307; test: spore inhibition test; type: cell-based; conditions: 48 h; start concentration 1 mg/ml (1o, 2o), 100 µg/ml (Amphotericin B)
Protocol: as §7, §8, §9

[13] = test system: P. berghei asexual stages; test: ex vivo drug assay (luciferase), asexual stages; type: cell-based; conditions: Plasmodium berghei; 24 h incubation, n=3; read-out: IC50 against P. berghei ex vivo
Protocol: Plates frozen at −80 °C were thawed at 37 °C. The cells were lysed at room temperature in 10 μl 1x luciferin lysis buffer (Luciferase Cell Culture Lysis 5 × reagent, Promega), and 100 μl luciferase assay substrate was added to each well (Luciferase Assay System, Promega). Luciferase activity was measured on a luminescence plate reader (Mithras LB940 luminometer, Berthold Technologies). The mean of the luciferase activity was calculated for each technical triplicate and normalized as follows: (Lucx−LucRBC)/(Lucsolvent−LucRBC) with Lucx and Lucsolvent=mean luciferase activity for parasites incubated with compound x and with solvent (DMSO for 1o and PBS for MB), respectively, and LucRBC=mean luciferase activity of non-infected red blood cells (background). IC50 values were calculated using Prism (GraphPad, log(inhibitor) versus normalized response—variable slope) in three independent experiments for the P. falciparum gametocyte assay and five for the P. berghei ex vivo drug assay.
The animal experiments described in this part were performed at the Institut de Biologie Moléculaire et Cellulaire (Strasbourg, France), using facilities and protocols adhering to national regulations of laboratory animal welfare in France. […] Parasitaemia was monitored via FACS analysis (FACSCalibur, BD Bioscience). […]

## CC(C)CCCC(C)C1CCC2C3CCC4CC(O)C(NCc5ccccc5O)CC4(C)C3CCC12C (stereo not shown) [13c]
[1]
  IC50: 0.465 µM
HeLa
  CC50: 85.3 µM
HUVEC
  GI50: 23.7 µM
K-562
  GI50: 17.7 µM

## CC(C)CCCC(C)C1CCC2C3CCC4CC(O)C(NCc5ccccc5O)CC4(C)C3CCC12C (stereo not shown) [14c]
[1]
  IC50: 0.208 µM
HeLa
  CC50: 21.8 µM
HUVEC
  GI50: 6.7 µM
K-562
  GI50: 8.2 µM

## C[C@@H]1[C@H](O)[C@@H](C)/C=C/C=C/C=C/C=C/C=C/C=C/C=C/[C@H](O[C@@H]2O[C@H](C)[C@@H](O)[C@H](N)[C@@H]2O)C[C@@H]2O[C@](O)(C[C@@H](O)C[C@@H](O)[C@H](O)CC[C@@H](O)C[C@@H](O)CC(=O)O[C@H]1C)C[C@H](O)[C@H]2C(=O)O [Amphotericin B, amphotericin B, reference compound]
[2]
  inhibition zone diameter, Penicillium notatum (P1): 19p
[3]
  zone of inhibition at 10 µg/mL: 21 mm
[4]
  inhibition zone diameter, Sporobolo. salmonicolor (H4): 18p
[5]
  antifungal profile, 1st value = microscopic visualization-based observation, Penicillium chrysogenum: 100
  antifungal profile, 2nd value = optical density-based observation, Penicillium chrysogenum: 1.56
[6]
  antifungal profile, 1st value = microscopic visualization-based observation, Lichtheimia corymbifera: < 0.05
  antifungal profile, 2nd value = optical density-based observation, Lichtheimia corymbifera: < 0.05
[7]
  antifungal profile, 1st value = microscopic visualization-based observation, Candida albicans: 0.4
  antifungal profile, 2nd value = optical density-based observation, Candida albicans: 0.2
[8]
  antifungal profile, 1st value = microscopic visualization-based observation, Arthroderma benhamiae: 3.12
  antifungal profile, 2nd value = optical density-based observation, Arthroderma benhamiae: 0.2
[9]
  antifungal profile, 1st value = microscopic visualization-based observation, Rhizopus arrhizus: 25
  antifungal profile, 2nd value = optical density-based observation, Rhizopus arrhizus: 1.56
[10]
  antifungal profile, 1st value = microscopic visualization-based observation, Aspergillus fumigatus: 3.12
  antifungal profile, 2nd value = optical density-based observation, Aspergillus fumigatus: 0.4
[11]
  antifungal profile, 1st value = microscopic visualization-based observation, Alternaria alternata: 0.78
  antifungal profile, 2nd value = optical density-based observation, Alternaria alternata: 0.1
[12]
  antifungal profile, 1st value = microscopic visualization-based observation, Aspergillus terreus: 50
  antifungal profile, 2nd value = optical density-based observation, Aspergillus terreus: 0.2

## CN(C)c1ccc2nc3ccc(=[N+](C)C)cc-3sc2c1 [methylene blue, reference compound]
[13]
  IC50: 0.0026 ± 0.0012 µM
